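Grown in 96-well plates, cells were treated for 48 hours with each compound at five concentrations. Insufficient inhibition: endpoint recorded as highest concentration tested. Abbreviation: GI50, concentration required for 50% inhibition of growth. TGI is the concentration that stops growth completely.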
How the values were obtained:
Assay in all cases: NCI anticancer screen, dose series, 48 h
[1] = tested on: 786-0 renal
[2] = tested on: HL-60(TB) leukemia
[3] = tested on: HOP-92 NSCLC
[4] = tested on: M14 melanoma
[5] = tested on: MOLT-4 leukemia
[6] = tested on: RXF 393 renal
[7] = tested on: SF-268 CNS
[8] = tested on: SK-MEL-2 melanoma
[9] = tested on: SW-620 colon
[10] = tested on: DU-145 prostate

SMILES | TGI [1] | TGI [2] | TGI [3] | TGI [4] | TGI [5] | TGI [6] | TGI [7] | TGI [8] | TGI [9] | GI50 [1] | GI50 [10] | GI50 [4] | GI50 [6] | GI50 [7] | GI50 [8] | GI50 [9] | TGI [10] | GI50 [2] | GI50 [5]
CC(=O)Nc1ccccc1S(=O)c1ccccc1 (stereo not drawn) | > 100 µM | > 100 µM | > 100 µM | > 100 µM | > 100 µM | > 100 µM | > 100 µM | > 100 µM | > 100 µM | – | – | – | – | – | – | – | – | – | –
CCOc1ccccc1NC(=O)C(=O)c1c(O)c2ccc(O)cc2oc1=O | > 100 µM | > 100 µM | – | > 100 µM | > 100 µM | > 100 µM | > 100 µM | > 100 µM | > 100 µM | – | – | – | – | – | – | – | – | – | –
NNC(=O)N/N=C1/C(=O)N(c2ccc(Cl)c(Cl)c2)C(=O)C(=O)C1c1nc2ccccc2o1 (stereo not drawn) | > 100 µM | > 100 µM | > 100 µM | > 100 µM | > 100 µM | – | > 100 µM | > 100 µM | > 100 µM | – | – | – | – | – | – | – | – | – | –
CC(=O)CC(=O)ON(C)C(=O)Cc1ccccc1 | > 100 µM | > 100 µM | > 100 µM | > 100 µM | > 100 µM | > 100 µM | > 100 µM | – | > 100 µM | – | – | – | – | – | – | – | – | – | –
CCCCCC/C(CC(=O)CCC(=O)NCCc1ccccc1)=N\NC(=O)c1ccc2ccccc2c1O | > 100 µM | 33.7 µM | > 100 µM | > 100 µM | 56.5 µM | > 100 µM | > 100 µM | 53.7 µM | > 100 µM | – | – | – | – | – | – | – | – | – | –
N#CC(CC(=O)O)=C(c1ccccc1)c1ccccc1 | > 100 µM | – | > 100 µM | > 100 µM | – | – | > 100 µM | > 100 µM | > 100 µM | – | – | – | – | – | – | – | – | – | –
C[C@H](CCCOS(C)(=O)=O)[C@H]1CC[C@H]2[C@@H]3CC[C@@H]4C[C@H](OS(C)(=O)=O)CC[C@]4(C)[C@H]3CC[C@]12C | – | – | – | > 2500 µM | – | > 2500 µM | – | > 2500 µM | > 2500 µM | 523 µM | 1160 µM | 706 µM | 367 µM | 590 µM | 989 µM | > 2500 µM | – | – | –
ClCCCN1CCCCC1CCl (stereo not drawn) | > 100 µM | > 100 µM | > 100 µM | > 100 µM | > 100 µM | > 100 µM | > 100 µM | > 100 µM | > 100 µM | – | – | – | – | – | – | – | – | – | –
C#Cc1ccccc1N1C(=O)C=CC1=O | > 100 µM | > 100 µM | – | > 100 µM | > 100 µM | – | > 100 µM | > 100 µM | > 100 µM | – | – | – | – | – | – | – | – | – | –
CC1CCC2[C@@H](C)COC3O[C@]4(C)CCC1C32OO4 (stereo partly drawn) | > 100 µM | – | > 100 µM | > 100 µM | – | > 100 µM | > 100 µM | > 100 µM | > 100 µM | – | – | – | – | – | – | – | – | – | –
C/C(=N\NS(=O)(=O)c1ccccc1)c1ccc[n+]([O-])n1 | > 100 µM | 69.9 µM | > 100 µM | > 100 µM | > 100 µM | – | > 100 µM | – | > 100 µM | – | – | – | – | – | – | – | – | – | –
N#CCCn1c(CCC(=O)Nc2ccc(Cl)cc2Cl)n[nH]c1=S | > 100 µM | > 100 µM | > 100 µM | > 100 µM | > 100 µM | > 100 µM | > 100 µM | > 100 µM | > 100 µM | – | – | – | – | – | – | – | – | – | –
Cc1ccc(SSCCCCS(=O)O)cc1 | > 100 µM | 20.4 µM | – | 32.6 µM | > 100 µM | 29.1 µM | 46.9 µM | 68.5 µM | 38.5 µM | – | – | – | – | – | – | – | – | – | –
COc1c(OC2OC(CO)C(O)C(O)C2O)cc2c(c1OC)-c1ccc(OC)c(=O)cc1[C@@H](NC(C)=O)CC2 (stereo partly drawn) | > 100 µM | > 100 µM | > 100 µM | > 100 µM | > 100 µM | > 90.4 µM | > 56.2 µM | > 100 µM | > 100 µM | – | – | – | – | – | – | – | – | – | –
NS(=O)(=O)c1ccc(N=Nc2c(=O)[nH]c3ccc4[nH]cccc4c23)cc1 | > 25 µM | 1.53 µM | – | 5.64 µM | 3.31 µM | 0.449 µM | > 5.99 µM | 0.696 µM | > 7.23 µM | 0.577 µM | 0.611 µM | 0.82 µM | 0.15 µM | 0.33 µM | 0.182 µM | 0.356 µM | > 7.96 µM | 0.557 µM | 0.632 µM
CCc1cccc(CC)c1NC(=O)C1=CNC(C)=C(C(=O)Nc2c(CC)cccc2CC)C1c1ccc(O)c(OC)c1 (stereo not drawn) | > 100 µM | 57.4 µM | > 100 µM | > 100 µM | 82.9 µM | 93.9 µM | > 100 µM | 91.8 µM | > 100 µM | – | – | – | – | – | – | – | – | – | –
Cc1ccccc1NC(=O)CC(=O)n1nc(-c2ccccc2)c(N=Nc2ccc([N+](=O)[O-])cc2)c1-c1ccccc1 | 67.1 µM | 60.5 µM | 34 µM | 33.3 µM | 64.8 µM | 82 µM | > 100 µM | > 100 µM | > 100 µM | – | – | – | – | – | – | – | – | – | –
CC(=O)OC1(C#N)CC2OC1C1NC21 (stereo not drawn) | > 100 µM | > 100 µM | > 100 µM | > 100 µM | > 100 µM | > 100 µM | > 100 µM | > 100 µM | > 100 µM | – | – | – | – | – | – | – | – | – | –
CC(=O)N1CCN(C=S)CC1 | > 100 µM | > 100 µM | > 100 µM | > 100 µM | > 100 µM | > 100 µM | > 100 µM | – | > 100 µM | – | – | – | – | – | – | – | – | – | –
Nc1nc(N)c(-c2ccc(Cl)cc2)c(/C=C/c2ccc([N+](=O)[O-])cc2)n1 | 44.9 µM | > 100 µM | – | > 100 µM | > 100 µM | – | 93.9 µM | 67.2 µM | > 100 µM | 5.81 µM | 6.66 µM | 7.15 µM | – | 8.32 µM | 18.6 µM | 4.08 µM | > 100 µM | 5.64 µM | 8.27 µM
OCC(O)C(OC1OC(CO)C(O)C(O)C1O)c1nn(-c2ccc(Cl)cc2)c2nc3cc(Cl)ccc3nc12 (stereo not drawn) | > 100 µM | – | – | > 100 µM | > 100 µM | > 100 µM | > 100 µM | – | – | – | – | – | – | – | – | – | – | – | –
O=C(OCc1ccccc1)c1ccccc1-c1c2ccc(=O)cc-2oc2cc(OCc3ccccc3)ccc12 | 71 µM | 22.8 µM | 17.9 µM | 44.7 µM | 6.44 µM | 34 µM | > 100 µM | 46.7 µM | > 100 µM | – | – | – | – | – | – | – | – | – | –
